Our source for the inhibition and EC50 values is patent EP3597653A1, “CYCLIC INHIBITORS OF HEPATITIS B VIRUS” (IRBM S.P.A., priority 2018, dated 2020).

A word on the EC50: it is the concentration giving half of the maximal effect.

The experiment has as its system HBV. In words: HBV inhibition assay in HepAD38 cells (extracellular HBV DNA by direct qPCR). In kind it is cell-based. The settings on record: Hepatitis B virus, 96 hours; for inhibition at 1 µM: compound at 1 µM; for inhibition at 0.5 µM: compound at 0.5 µM; for EC50: 8-point dose-response curve, read-out: HBV inh EC50. In outline: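 HepAD38 cells (HepG2, tetracycline-off HBV) induced in tetracycline-free medium, treated 96 h at 37 °C with compound, 0.5% DMSO. Extracellular HBV DNA quantified by direct SYBR qPCR of lysed supernatant, as % of untreated; EC50 from 8-point 1:2 curves; cytotoxicity by CellTiter-Blue.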
(Real-time PCR tracks product formation cycle by cycle.)

Where [1] appears, read: relative to non-treated reference, read-out: Anti HBV Activity (conc µM).

With `O=C(Nc1cc(F)c(F)c(F)c1)c1ccc2c(c1)S(=O)(=O)N(CCO)CN2` [Example E62, 2-(2-hydroxyethyl)-N-(3,4,5-trifluorophenyl)-3,4-dihydro-2H-benzo[e][1,2,4]thiadiazine-7-carboxamide 1,1-dioxide], the inhibition at 1 µM under setting [1] was under 50%. Still for that read-out and setting: the same measure for `CC1Nc2ccc(C(=O)Nc3cc(F)c(F)c(F)c3)cc2S(=O)(=O)N1CCO` (centres unmarked) [Example E63, 2-(2-hydroxyethyl)-3-methyl-N-(3,4,5-trifluorophenyl)-3,4-dihydro-2H-benzo[e][1,2,4]thiadiazine-7-carboxamide 1,1-dioxide]: under 50%. With `O=C(Nc1cc(F)c(F)c(F)c1)c1ccc2c(c1)S(=O)(=O)N1CCCC1N2` (centres unmarked) [Example E64, N-(3,4,5-trifluorophenyl)-2,3,10,10a-tetrahydro-1H-benzo[e]pyrrolo[1,2-b][1,2,4]thiadiazine-7-carboxamide 5,5-dioxide], the inhibition at 0.5 µM under setting [1] was under 50%.

In the case of `O=C(Nc1ccc(F)c(Cl)c1)c1ccc2c(c1)S(=O)(=O)NCN2` [Example E65, N-(3-chloro-4-fluorophenyl)-3,4-dihydro-2H-benzo[e][1,2,4]thiadiazine-7-carboxamide 1,1-dioxide], under setting [1], the inhibition at 0.5 µM was over 50%. On to `O=C(Nc1ccc(F)c(F)c1)c1ccc2c(c1)S(=O)(=O)NC=N2` [Example E66, N-(3,4-difluorophenyl)-2H-benzo[e][1,2,4]thiadiazine-7-carboxamide 1,1-dioxide], for which the inhibition at 1 µM under setting [1] was under 50%. Consider `CC1=Nc2ccc(C(=O)Nc3ccc(F)c(F)c3)cc2S(=O)(=O)N1` [Example E67, N-(3,4-difluorophenyl)-3-methyl-2H-benzo[e][1,2,4]thiadiazine-7-carboxamide 1,1-dioxide], for which the inhibition at 1 µM under setting [1] is under 50%.

For `O=C(Nc1cc(F)c(F)c(F)c1)c1cc2c(cc1F)N=CNS2(=O)=O` [Example E68, 6-fluoro-N-(3,4,5-trifluorophenyl)-2H-benzo[e][1,2,4]thiadiazine-7-carboxamide 1,1-dioxide], under setting [1], the inhibition at 1 µM was under 50%. The same measure, in the same setting: to `NC1=Nc2ccc(C(=O)Nc3cc(F)c(F)c(F)c3)cc2S(=O)(=O)N1` [Example E69, 3-amino-N-(3,4,5-trifluorophenyl)-2H-benzo[e][1,2,4]thiadiazine-7-carboxamide 1,1-dioxide] belongs under 50%; to `CC(=O)NC1=Nc2ccc(C(=O)Nc3cc(F)c(F)c(F)c3)cc2S(=O)(=O)N1` [Example E70, 3-acetamido-N-(3,4,5-trifluorophenyl)-2H-benzo[e][1,2,4]thiadiazine-7-carboxamide 1,1-dioxide], under 50%. With `O=C(Nc1cc(F)c(F)c(F)c1)c1cc2c(cc1F)NCNS2(=O)=O` [Example E71, 6-fluoro-N-(3,4,5-trifluorophenyl)-3,4-dihydro-2H-benzo[e][1,2,4]thiadiazine-7-carboxamide 1,1-dioxide], the EC50 was under 1000 nM. The same measure, in the same setting: to `O=C(Nc1cc(F)c(F)c(F)c1)c1cc(F)c2c(c1)S(=O)(=O)NCN2` [Example E72, 5-fluoro-N-(3,4,5-trifluorophenyl)-3,4-dihydro-2H-benzo[e][1,2,4]thiadiazine-7-carboxamide 1,1-dioxide] belongs over 1000 nM. On to `CN1C=NS(=O)(=O)c2cc(C(=O)Nc3cc(F)c(F)c(F)c3)c(F)cc21` [Example E73, 6-fluoro-4-methyl-N-(3,4,5-trifluorophenyl)-4H-benzo[e][1,2,4]thiadiazine-7-carboxamide 1,1-dioxide], for which the inhibition at 1 µM under setting [1] is under 50%.

In the case of `O=C1Nc2ccc(C(=O)Nc3ccc(F)c(F)c3)cc2S(=O)(=O)N1` [Example E74, N-(3,4-difluorophenyl)-3-oxo-3,4-dihydro-2H-benzo[e][1,2,4]thiadiazine-7-carboxamide 1,1-dioxide], under setting [1], the inhibition at 1 µM is under 50%. Still for that read-out and setting: to `O=C1Nc2ccc(C(=O)Nc3cc(F)c(F)c(F)c3)cc2S(=O)(=O)N1` [Example E75, 3-oxo-N-(3,4,5-trifluorophenyl)-3,4-dihydro-2H-benzo[e][1,2,4]thiadiazine-7-carboxamide 1,1-dioxide] belongs under 50%. In the case of `CN1C(=O)Nc2ccc(C(=O)Nc3cc(F)c(F)c(F)c3)cc2S1(=O)=O` [Example E76, 2-methyl-3-oxo-N-(3,4,5-trifluorophenyl)-3,4-dihydro-2H-benzo[e][1,2,4]thiadiazine-7-carboxamide 1,1-dioxide], the inhibition at 1 µM under setting [1] is over 50%.

For `C[C@@H](N1C(=O)Nc2ccc(C(=O)Nc3cc(F)c(F)c(F)c3)cc2S1(=O)=O)C(F)(F)F` [Example E77, (R)-3-oxo-N-(3,4,5-trifluorophenyl)-2-(1,1,1-trifluoropropan-2-yl)-3,4-dihydro-2H-benzo[e][1,2,4]thiadiazine-7-carboxamide 1,1-dioxide], the inhibition at 0.5 µM under setting [1] is under 50%.

Take `C[C@H](N1C(=O)Nc2ccc(C(=O)Nc3cc(F)c(F)c(F)c3)cc2S1(=O)=O)C(F)(F)F` [Example E78, (S)-3-oxo-N-(3,4,5-trifluorophenyl)-2-(1,1,1-trifluoropropan-2-yl)-3,4-dihydro-2H-benzo[e][1,2,4]thiadiazine-7-carboxamide 1,1-dioxide]: the inhibition at 0.5 µM under setting [1] is over 50%. As to `O=C(Nc1cc(F)c(F)c(F)c1)c1ccc2c(c1)S(=O)(=O)N(C1CC1)C(=O)N2` [Example E79, 2-cyclopropyl-3-oxo-N-(3,4,5-trifluorophenyl)-3,4-dihydro-2H-benzo[e][1,2,4]thiadiazine-7-carboxamide 1,1-dioxide], under setting [1], the inhibition at 1 µM was under 50%.

As for `O=C(Nc1cc(F)c(F)c(F)c1)c1ccc2c(c1)S(=O)(=O)N([C@H]1CC[C@H](O)CC1)C(=O)N2` [Example E80, trans-2-(4-hydroxycyclohexyl)-3-oxo-N-(3,4,5-trifluorophenyl)-3,4-dihydro-2H-benzo[e][1,2,4]thiadiazine-7-carboxamide 1,1-dioxide], the inhibition at 1 µM under setting [1] is over 50%. Take `O=C(Nc1cc(F)c(F)c(F)c1)c1ccc2c(c1)S(=O)(=O)N(C1CCNCC1)C(=O)N2` [Example E81, 3-oxo-2-(piperidin-4-yl)-N-(3,4,5-trifluorophenyl)-3,4-dihydro-2H-benzo[e][1,2,4]thiadiazine-7-carboxamide 1,1-dioxide]: the inhibition at 1 µM under setting [1] is over 50%. On to `O=C(Nc1cc(F)c(F)c(F)c1)c1ccc2c(c1)S(=O)(=O)N(C1COC1)C(=O)N2` [Example E82, 2-(oxetan-3-yl)-3-oxo-N-(3,4,5-trifluorophenyl)-3,4-dihydro-2H-benzo[e][1,2,4]thiadiazine-7-carboxamide 1,1-dioxide], for which, under setting [1], the inhibition at 0.5 µM was over 50%. As for `CC(C)(C)OC(=O)N1CC[C@H](N2C(=O)Nc3ccc(C(=O)Nc4cc(F)c(F)c(F)c4)cc3S2(=O)=O)C1` [Example E83, tert-butyl (S)-3-(1,1-dioxido-3-oxo-7-((3,4,5-trifluorophenyl)carbamoyl)-3,4-dihydro-2H-benzo[e][1,2,4]thiadiazin-2-yl)pyrrolidine-1-carboxylate], the inhibition at 0.5 µM under setting [1] was under 50%.

As to `O=C(Nc1cc(F)c(F)c(F)c1)c1ccc2c(c1)S(=O)(=O)N([C@H]1CCNC1)C(=O)N2` [Example E84, (S)-3-oxo-2-(pyrrolidin-3-yl)-N-(3,4,5-trifluorophenyl)-3,4-dihydro-2H-benzo[e][1,2,4]thiadiazine-7-carboxamide 1,1-dioxide], the inhibition at 0.1 µM (compound at 0.1 µM, relative to non-treated reference, read-out: Anti HBV Activity (conc µM)) is under 50%.
